Patent publication US20050003383A1, “Linoleate isomerase” (Arkion Life Sciences LLC d/b/a Bio-Technical Resources …, priority 1999, published 2005)
Where two headings read alike, the source gives them in different places.

Tests used:
[1] = target: P. acnes ATCC 6919 linoleate isomerase (Cutibacterium acnes, UniProt Q6A8X5); assay type: biochemical, Propionibacterium acnes
Experimental: Formation of CLA was determined by measuring the absorbence at 234 nm. […] Generally, the isomerase was assayed using an endpoint assay after 30 to 60 minutes incubation at room temperature. FIG. 18 (time course assay at different linoleic acid levels) and FIG. 19 (end point assay at different linoleic acid levels) show the effect of increasing substrate concentration on formation of […].

[2] = system: C. sporogenes ATCC 25762 linoleate isomerase; assay: C. sporogenes isomerase activity and stability in extracts with additives; assay type: biochemical, Clostridium sporogenes; settings: for effect of chelating agents on enzyme activity and stability: 1 mM; for effect on the stability of the isomerase: PMSF 0.1-1.0 mM, iodoacetamide 1 mM
Experimental: Temperature sensitivity of the isomerase in crude extracts was tested at 4° C., room temperature (˜25° C.) and 37° C. […] The optimum pH was monitored by adjusting the pH from 5.0 to 9.0 using the 0.1M Tris buffer containing 10 mM NaCl, 1 mM DTT and 40 ppm linoleic acid.
The concentration of linoleic acid was tested from 0 to 100 ppm (FIG. 26).
Two different media, BHI and MRS, were tested. […] Protease inhibitors, PMSF (0.1-1.0 mM), iodoacetamide (1 mM) and pepstatin A were tested for their effects on the stability of the isomerase.
It has been reported that solubilization in the presence of lysophosphatidylcholine (LPC) allows higher detergent concentrations to be used, thus allowing more complete membrane protein solubilization. CaCl2 can activate enzymes, such as some nucleases.

[3] = system: L. reuteri PYR8; assay: Whole cell biotransformation of linoleic acid to CLA by L. reuteri PYR8; assay type: cell-based, Lactobacillus reuteri; settings: for effect on (cis,trans)-9,11-CLA formation: nonionic detergent added
Experimental: Cultures were grown and harvested as described above. Washed cells were resuspended in either fresh growth medium or 0.1 M Tris pH 8.0 buffer containing linoleic acid at various concentrations.
Samples were taken at appropriate intervals and analyzed for CLA as described in Example 2. In some experiments, various detergents were added to 0.1-0.5% final concentration. […] About 5 mL solvent was added to about 20 mL aqueous cell suspension in a 125 mL baffled shake flask incubated at room temperature.
Whole cells of L. reuteri PYR8 were used in all biotransformation experiments described below.
The effect of substrate and product on the enzyme performance was also investigated, as well as the possibility of recycling the cells. The effect of CLA on the reaction was studied by adding different concentrations of either a mixture of isomers (Sigma material, approximately 41% 9,11 isomer and 48% 10,12 CLA), or just 9,11 CLA (Matreya material, approximately 77% 9,11 CLA). Concentrations from 500 to 3000 ppm were tested. Some experiments were also performed recycling the broth from a previous biotransformation reaction with L. reuteri PYR8, resulting in an initial CLA concentration around 700 ppm. In every case, 1000 ppm linoleic acid were added.
In the second experiment, cell recycle was studied with cells that have performed the biotransformation at different levels of linoleic acid. Cells were harvested, resuspended in breakage buffer at a 10-fold concentration, and linoleic acid was added at 1000, 1500, 2000, 2500 and 3000 ppm level. Given the higher linoleic acid concentration, the reaction was allowed to proceed for six hours. […] 1000 ppm linoleic acid were added and the reaction was followed for four hours.

[4] = cited from earlier work
[5] = system: B. fibrisolvens A-38 linoleate isomerase; settings: cited from earlier work; for Km / Vmax: compound as substrate, Kepler and Tove (1967)
[6] = system: linoleate isomerase from Clostridium sporogenes; assay: C. sporogenes linoleate isomerase kinetic assay, absorbence at 234 nm, partially purified enzyme; assay type: biochemical; settings: for substrate has an inhibitory effect at concentrations above: substrate concentration dependency of isomerization
Experimental: In this experiment, all kinetic experiments were performed in a quartz cuvette (1-cm light-path with a magnetic stirrer) at room temperature using a HP 8452A diode array spectrophotometer. The cuvette was filled with 1 ml of incubation buffer containing 50 μg protein, 0.1 M potassium phosphate, pH7.5, 10 mM NaCl and 10% 1,2-propane diol. The isomerization was initiated by adding a small aliquot (1-2 μl) of freshly diluted substrate-stock (˜[…] linoleic acid) in 1,2-propane diol at 50 seconds. The increase in absorbence at 234 nm was monitored and recorded. […] The amount of product formed was calculated based on a molar extinction coefficient of 24,000.

[7] = system: L. reuteri PYR8 linoleate isomerase; assay: L. reuteri PYR8 linoleate isomerase kinetic assay; assay type: biochemical, Lactobacillus reuteri
Experimental: Linoleic isomerase activity was assayed either via CLA quantification by gas chromatography as described in Example 2 or by spectrophotometry. The enzyme assay was carried out in 0.1 M Tris buffer pH 7.5, 10 mM NaCl, 1 mM dithiothreitol, with linoleic acid at 20 parts per million (ppm), unless otherwise noted.
About 50 to about 250 μL of enzyme sample was added to 1.5 mL of enzyme assay buffer for reaction. About 1 to about 2 mL of aqueous phase was separated from the enzyme reaction and was extracted with about 3 mL of hexane. In some experiments, and with chromatography fractions containing detergent, 0.5 mL of methanol and 0.5 mL of 5 M NaCl solution were first added to enhance phase separation. The organic layer was separated and the absorbence at 234 nm was measured using a HP 8452A diode array spectrophotometer. Depending on the level of activity, assay mixtures of chromatography fractions were incubated at room temperature from about 1 to about 24 hours before extraction with hexane.
Kinetic assays were performed directly in a 0.5 mL quartz cuvette at room temperature and were continuously monitored at 234 nm. Reactions were initiated by addition of linoleic acid from a concentrated stock prepared in 1,2-propane diol. Reaction buffer was the same as above except it contained 10% 1,2-propane diol.

[8] = Linoleate isomerase characterization (Table 7B), enzymes compared on linoleic acid; assay type: biochemical; settings: for CLA Isomer: CLA isomer produced from linoleic acid; for Optimal pH / Km / Vmax: substrate linoleic acid
Experimental: Table 7B is a summary of the kinetic data and characterization of linoleate isomerases from P. acnes (crude extract prior to DEAE purification as in Example 11, except that the Vmax was determined using enzyme purified through the chromatofocusing step as in Example 11), L. reuteri (enzyme purified through the gel filtration step as in Example 3), and C. sporogenes (enzyme purified through the gel filtration step as in Example 17), all isolated by the present inventors, and the B. fibrisolvens A-38 linoleate isomerase (crude extract; Kepler and Tove, 1967, J. Biochem. 242:5686-5692). The substrate in these experiments was linoleic acid.

[9] = pH of about 7.5, about 20° C., read-out: Km for linoleic acid
[10] = compound as substrate at 10 PPM, activity with linoleic acid set as 100%
[11] = compound as substrate, read-out: Km

c1cnc2c(c1)ccc1cccnc12 [1,10-phenanthroline]
inhibition of isomerase activity ([1]; EDTA 5 mM, 1,10-phenanthroline 1 mM, p-chloromercuribenzoate 5 μM, N-ethylmaleimide 100 μM): not inhibited
effect of chelating agents on enzyme activity and stability ([2]; crude extracts): protected

[Ca+2].[Cl-].[Cl-] [CaCl2]
effect on enzyme activity ([2]; Tris and phosphate buffer systems): decreased the enzyme activity

O=C(O)CN(CCN(CC(=O)O)CC(=O)O)CC(=O)O [EDTA]
effect of chelating agents on enzyme activity and stability ([2]; crude extracts): negative effect

O=S(=O)(F)Cc1ccccc1 [PMSF]
effect on the stability of the isomerase [2]: None provided measurable benefit

CCCCCCCC/C=C\CCCCCCCC(=O)OCCOCC(OCCO)C1OCC(OCCO)C1OCCO (stereo not shown) [Tween-80]
effect on (cis,trans)-9,11-CLA formation [3]: does not significantly increase

CCCCCCCCCCCCCCCC [hexadecane]
log P [4]: 8.6

NC(=O)CI [iodoacetamide]
effect on the stability of the isomerase [2]: None provided measurable benefit

CCCCC/C=C\C/C=C\CCCCCCCC(=O)O [linoleic acid, (cis, cis)-9, 12-octadecadienoic acid]
Km [1, 9]: ≥ 17.2 µM
Km [5]: 12 µM
Vmax [5]: 55 nmole/min/mg protein
maximal velocity (Vmax) ([6]; Lineweaver-Burke plot): 350 μmol CLA/min/mg protein
Km ([6]; Lineweaver-Burke plot, read-out: Km): 11.3 µM
Vmax ([6]; compound as substrate): 350 nmole/min/mg protein
RELATIVE ACTIVITY % [6, 10]: 100%
Km [6, 11]: 11.3 µM
Km [6, 9]: ≥ 11.3 µM
substrate has an inhibitory effect at concentrations above [6]: above 20 μM
optimum concentration for linoleic acid ([2]; tested from 0 to 100 ppm, crude extracts): 40 ppm
substrate inhibition ([3]; up to 3000 ppm linoleic acid, cells with good activity): no substrate inhibition was detected
Vmax ([7]; compound as substrate): 880 nmole/min/mg protein
Km [7, 11]: 8.1 µM
Km [7, 9]: ≥ 8.1 µM

CC/C=C\C/C=C\C/C=C\CCCCCCCC(=O)O [linolenic acid, (cis, cis, cis)-9, 12, 15 octadecatrienoic acid]
Km [5]: 23 µM
Vmax [5]: 130 nmole/min/mg protein
Vmax ([6]; compound as substrate): 811 nmole/min/mg protein
RELATIVE ACTIVITY % [6, 10]: 84%
Km [6, 11]: 22.5 µM
substrate has an inhibitory effect at concentrations above [6]: > 40 µM

CCCCCCCC/C=C\CCCCCCCC(=O)O [oleic acid, (cis)-9 octadecenoic acid]
type of inhibition ([5]; reported by Kepler and Tove): competitive inhibition
type of inhibition ([6]; 0, 24 and 48 μM oleic acid, varied linoleic acid, Lineweaver-Burke and Hanes-Woolf plots): uncompetitive inhibitor
isomerase activity in the presence of inhibitor ([6]; 70 μM oleic acid (20 PPM)): almost completely lost
RELATIVE ACTIVITY % ([6]; compound added at 35 μM, substrate LA 35 μM, pH 7.5, LA alone = 100%): 25%
RELATIVE ACTIVITY % [6, 10]: 0%
Ki ([6]; inhibition of linoleic acid isomerization, calculated from secondary plots, read-out: inhibition constants (Ki)): 23.8 µM

Triton X-100
effect on (cis,trans)-9,11-CLA formation [3]: does not significantly increase

pepstatin A
effect on the stability of the isomerase [2]: None provided measurable benefit

B1: L. reuteri: (cis, trans)-9,11-linoleate isomerase from Lactobacillus reuteri PYR8, SEQ ID NO:18 (protein, listed as Lactobacillus reuteri)
chain: MYYSNGNYEAFARPKKPAGVDKKHAYIVGGGLAGLSAAVFLIRDAQMPGENIHILEELPVAGGSLDGEDRPGIGFVTRGGREMENHFECMWDMYRSIPSLEIPGASYLDEYYWLDKEDPNSSNCRLTYKRGNEVPSDGKYGLSKKAIKELTKLIMTPEEKLGRETIGEYFSDDFFESNFWIYWSTMFAFERWHSLAEMRRYMMRFIHHIDGLPDFTALKFNKYNQYESMTKPLLAYLKDHHVKIEYDTQVKNVIVDTHGRQKHAKRILLTQAGKDKVVELTDNDLVFVTNGSITESSTYGSHHQAARPTQALGGSWKLWENLARQSADFGHPDVFCKNLPGRSWFISATATVKNPQVEPYIERLTKRDLHDGKVNTGGIITVTDSNWMLSWTIHRQPHFKKQKKNETIVWIYGLYSNTKGNYIKKRIVDCTGEEITKEWLSIWGFQKPLIDDLAKESSINTVPVYMPFITSYFMPRVKGDRPDVVPEGSANLAFIGNFAESPSRDTVFTTEYSVRTAMEAVYTLLDVDRGVPEVFNSIYDLRELMRAMYYMNDKKPLKDMDLPIPKIVEKPLLKKLQGTWIGELMEQQHLL
CLA Isomer [8]: 9,11
Optimal pH [8]: 7.5
Km ([8]; purified enzyme): 8.1 µM
Vmax ([8]; purified enzyme): 880^5 nmol/min/mg

B2: P. acnes: (trans, cis)-10,12-linoleate isomerase from Propionibacterium acnes ATCC 6919, SEQ ID NO:61 (protein)
chain: MSISKDSRIAIIGAGPAGLAAGMYLEQAGFHDYTILERTDHVGGKCHSPNYHGRRYEMGAIMGVPSYDTIQEIMDRTGDKVDGPKLRREFLHEDGEIYVPEKDPVRGPQVMAAVQKLGQLLATKYQGYDANGHYNKVHEDLMLPFDEFLALNGCEAARDLWINPFTAFGYGHFDNVPAAYVLKYLDFVTMMSFAKGDLWTWADGTQAMFEHLNATLEHPAERNVDITRITREDGKVHIHTTDWDRESDVLVLTVPLEKFLDYSDADDDEREYFSKIIHQQYMVDACLVKEYPTISGYVPDNMRPERLGHVMVYYHRWADDPHQIITTYLLRNHPDYADKTQEECRQMVLDDMETFGHPVEKIIEEQTWYYFPHVSSEDYKAGWYEKVEGMQGRRNTFYAGEIMSFGNFDEVCHYSKDLVTRFFV
modifications: Propionibacterium acnes
Enzyme Solubility [8]: S
CLA Isomer [8]: 10,12
Optimal pH [8]: 7.3
Km ([8]; crude extract): 17.2 µM
Vmax ([8]; purified enzyme): 478^5 nmol/min/mg
